# Laboratory results as given in ChEMBL document CHEMBL4402510, “Caprazamycins: Promising lead structures acting on a novel antibacterial target MraY” (Eur J Med Chem, 2019).
# pIC50: −log10 of the molar value.
# Legend:
# Bacillus subtilis = assay: Antibacterial activity against Bacillus subtilis PCI 219; assay type: functional
# Mycolicibacterium phlei = assay: Antibacterial activity against Mycobacterium phlei; assay type: functional
# [1] = Antibacterial activity against Mycobacterium avium subsp. avium ATCC 25291; assay type: functional
# [2] = test system: Mycobacterium avium subsp. paratuberculosis; assay: Antibacterial activity against Mycobacterium avium subsp. paratuberculosis ATCC 43015; assay type: functional
# [3] = test system: Mycolicibacterium smegmatis; assay: Antibacterial activity against Mycobacterium smegmatis ATCC 607; assay type: functional
# [4] = test system: Mycobacterium tuberculosis; assay: Antibacterial activity against Mycobacterium tuberculosis Kurono; assay type: functional
# [5] = test system: Mycobacterium tuberculosis; assay: Antibacterial activity against Mycobacterium tuberculosis H37Rv; assay type: functional
# Streptococcus pneumoniae = assay: Antibacterial activity against Streptococcus pneumoniae PCI 602; assay type: functional
# Staphylococcus aureus [6] = assay: Antibacterial activity against methicillin resistant Staphylococcus aureus MS16526; assay type: functional
# Escherichia coli = assay: Antibacterial activity against Escherichia coli K-12; assay type: functional
# Staphylococcus aureus [7] = assay: Antibacterial activity against methicillin resistant Staphylococcus aureus No. 5; assay type: functional
# Mycolicibacterium vaccae = assay: Antibacterial activity against Mycobacterium vaccae ATCC 15483; assay type: functional
# [8] = test system: Mycobacterium tuberculosis; assay: Antibacterial activity against Mycobacterium tuberculosis JCM 6384; assay type: functional
# Staphylococcus aureus [9] = assay: Antibacterial activity against Staphylococcus aureus FDA 209P; assay type: functional
# [10] = biological target: T1, Phospho-N-acetylmuramoyl-pentapeptide-transferase (Bacillus subtilis (strain 168), UniProt Q03521); assay: Inhibition of MraY in Bacillus subtilis
# T1 sequence (Q03521 whole entry): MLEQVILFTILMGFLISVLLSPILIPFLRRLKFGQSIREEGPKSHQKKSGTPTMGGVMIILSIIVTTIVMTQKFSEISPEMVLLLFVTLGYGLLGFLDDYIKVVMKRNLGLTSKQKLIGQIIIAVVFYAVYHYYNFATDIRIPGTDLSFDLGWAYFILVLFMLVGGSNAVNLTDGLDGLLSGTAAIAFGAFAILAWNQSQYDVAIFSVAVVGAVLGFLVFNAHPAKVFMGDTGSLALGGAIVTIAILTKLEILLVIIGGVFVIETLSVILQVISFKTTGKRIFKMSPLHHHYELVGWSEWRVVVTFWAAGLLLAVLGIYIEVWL
Structure (SMILES),MIC (Bacillus subtilis),MIC (Mycolicibacterium phlei),MIC [1],MIC [2],MIC [3],MIC [4],MIC [5],MIC (Streptococcus pneumoniae),MIC (Staphylococcus aureus [6]),MIC (Escherichia coli),MIC (Staphylococcus aureus [7]),MIC (Mycolicibacterium vaccae),MIC [8],MIC (Staphylococcus aureus [9]),pIC50 [10]
CCCCCCCCCCCCCCCNC(=O)C1=CCN(C)[C@@H]([C@H](O[C@@H]2O[C@H](CN)[C@@H](O)[C@H]2O)[C@H]2O[C@@H](n3ccc(=O)[nH]c3=O)[C@H](O)[C@@H]2O)C(=O)N1C,1.56 µg/mL,6.25 µg/mL,3.13 µg/mL,0.78 µg/mL,1.56 µg/mL,1.56 µg/mL,1.56 µg/mL,3.13 µg/mL,50 µg/mL,1.56 µg/mL,> 100 µg/mL,6.25 µg/mL,1.56 µg/mL,< 0.2 µg/mL,–
CCCCCCCCNC(=O)C1=CCN(C)[C@@H]([C@H](O[C@@H]2O[C@H](CN)[C@@H](O)[C@H]2O)[C@H]2O[C@@H](n3ccc(=O)[nH]c3=O)[C@H](O)[C@@H]2O)C(=O)N1C,> 100 µg/mL,100 µg/mL,3.13 µg/mL,25 µg/mL,6.25 µg/mL,0.78 µg/mL,3.3 µg/mL,> 100 µg/mL,> 100 µg/mL,> 100 µg/mL,3.13 µg/mL,100 µg/mL,12.5 µg/mL,100 µg/mL,–
CN1C(=O)[C@H]([C@H](O[C@@H]2O[C@H](CN)[C@@H](O)[C@H]2O)[C@H]2O[C@@H](n3ccc(=O)[nH]c3=O)[C@H](O)[C@@H]2O)N(C)CC=C1C(=O)NC1CCCCCCCCCCC1,1.56 µg/mL,6.25 µg/mL,3.13 µg/mL,0.05 µg/mL,3.13 µg/mL,1.56 µg/mL,1.56 µg/mL,> 100 µg/mL,> 100 µg/mL,> 100 µg/mL,> 100 µg/mL,25 µg/mL,< 0.05 µg/mL,100 µg/mL,–
CCCCCCCCCCCCNC(=O)C1=CCN(C)[C@@H]([C@H](O[C@@H]2O[C@H](CN)[C@@H](O)[C@H]2O)[C@H]2O[C@@H](n3ccc(=O)[nH]c3=O)[C@H](O)[C@@H]2O)C(=O)N1C,0.78 µg/mL,0.39 µg/mL,3.13 µg/mL,–,0.39 µg/mL,1.56 µg/mL,1.56 µg/mL,6.25 µg/mL,6.25 µg/mL,100 µg/mL,12.5 µg/mL,1.56 µg/mL,0.2 µg/mL,3.13 µg/mL,–
CCCCCCCCCCCNC(=O)C1=CCN(C)[C@@H]([C@H](O[C@@H]2O[C@H](CN)[C@@H](O)[C@H]2O)[C@H]2O[C@@H](n3ccc(=O)[nH]c3=O)[C@H](O)[C@@H]2O)C(=O)N1C,0.39 µg/mL,0.39 µg/mL,3.13 µg/mL,0.2 µg/mL,< 0.2 µg/mL,1.56 µg/mL,1.56 µg/mL,50 µg/mL,12.5 µg/mL,> 100 µg/mL,25 µg/mL,1.56 µg/mL,0.2 µg/mL,6.25 µg/mL,–
CCCCCCCCCCCCCCCCNC(=O)C1=CCN(C)[C@@H]([C@H](O[C@@H]2O[C@H](CN)[C@@H](O)[C@H]2O)[C@H]2O[C@@H](n3ccc(=O)[nH]c3=O)[C@H](O)[C@@H]2O)C(=O)N1C,–,> 100 µg/mL,3.13 µg/mL,6.25 µg/mL,0.78 µg/mL,3.13 µg/mL,3.13 µg/mL,1.56 µg/mL,–,–,1.56 µg/mL,> 100 µg/mL,3.13 µg/mL,0.78 µg/mL,–
NC[C@H]1O[C@@H](O[C@@H](c2cn(CCN3CCN(c4ccc(N)cn4)CC3)nn2)[C@H]2O[C@@H](n3ccc(=O)[nH]c3=O)[C@H](O)[C@@H]2O)[C@H](O)[C@@H]1O,–,–,–,–,–,–,–,–,–,–,–,–,–,–,< 3.00
NC[C@H]1O[C@@H](O[C@@H](c2cn(CCCOc3ccc(C(=O)c4ccccc4)cc3)nn2)[C@H]2O[C@@H](n3ccc(=O)[nH]c3=O)[C@H](O)[C@@H]2O)[C@H](O)[C@@H]1O,–,–,–,–,–,–,–,–,–,–,–,–,–,–,4.00
NC[C@H]1O[C@@H](O[C@@H](c2cn(CCCCCOc3ccc(C(=O)c4ccccc4)cc3)nn2)[C@H]2O[C@@H](n3ccc(=O)[nH]c3=O)[C@H](O)[C@@H]2O)[C@H](O)[C@@H]1O,–,–,–,–,–,–,–,–,–,–,–,–,–,–,4.00
